Assay results from BindingDB's records for doi:10.7270/Q2QF8R8B (Pcmd, 2008).

Each compound was assayed against T1, Cathepsin G (Homo sapiens, UniProt P08311) (assay: IC50 of CTSG protease blockers – biochemical, confirmation, dose response (AID 832)).
T1 sequence (P08311 whole entry): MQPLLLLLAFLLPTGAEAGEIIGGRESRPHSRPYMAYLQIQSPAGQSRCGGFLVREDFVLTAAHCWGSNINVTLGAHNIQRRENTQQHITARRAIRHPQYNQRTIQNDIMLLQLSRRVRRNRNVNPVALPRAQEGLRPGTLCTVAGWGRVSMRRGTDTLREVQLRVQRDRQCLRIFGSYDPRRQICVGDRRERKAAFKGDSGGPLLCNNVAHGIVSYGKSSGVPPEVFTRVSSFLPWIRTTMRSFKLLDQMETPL

Row | SMILES | IC50 [µM]
1 | CCOC(=O)c1c(C)n(C(=O)c2ccco2)c(=O)n1C(=O)c1ccco1 | 12
2 | CC(C)C(CC(=O)N1CCCCC1)C1CCOC(C)(C)C1 (stereo not given) [3-(2,2-dimethyl-4-oxanyl)-4-methyl-1-(1-piperidinyl)-1-pentanone] | > 50
3 | COc1ccc(C(=O)n2nc(-c3ccco3)nc2SC)cc1OC [(3,4-dimethoxyphenyl)-[3-(2-furanyl)-5-(methylthio)-1,2,4-triazol-1-yl]methanone] | 22
4 | Cn1cnnc1SCc1ccc(C(=O)n2ncc(C#N)c2N)cc1 [5-amino-1-[4-[(4-methyl-1,2,4-triazol-3-yl)sulfanylmethyl]benzoyl]pyrazole-4-carbonitrile] | 3.86
5 | CC(C)(C)OC(=O)N[C@@H](Cc1ccccc1)c1nnc(S(=O)(=O)Cc2cccc(F)c2)o1 [tert-butyl N-[(1S)-1-[5-[(3-fluorophenyl)methylsulfonyl]-1,3,4-oxadiazol-2-yl]-2-phenylethyl]carbamate] | 2.67
6 | COc1ccccc1-c1cc(C(=O)Nc2cccnc2)no1 [5-(2-methoxyphenyl)-N-(3-pyridinyl)-3-isoxazolecarboxamide] | 43.2
7 | Cc1cnc(C(=O)Nc2ccccc2-c2ccc(C)o2)cn1 [5-Methyl-pyrazine-2-carboxylic acid [2-(5-methyl-furan-2-yl)-phenyl]-amide] | > 50
8 | CCSc1ccccc1C(=O)n1nnc2ccccc21 | 9.8
9 | Nc1nncn1C(=O)c1cccs1 [(3-Amino-[1,2,4]triazol-4-yl)-thiophen-2-yl-methanone] | 28.4
10 | O=C(NCCCn1ccnc1)c1noc2c1CCc1ccccc1-2 [N-[3-(1-imidazolyl)propyl]-4,5-dihydrobenzo[g][1,2]benzoxazole-3-carboxamide] | 3.73
11 | Cc1ccc(S(=O)(=O)n2nc(OC(=O)c3cccs3)cc2N)cc1 | 8.07
12 | COCC(C)NC(=O)c1noc2c1CCc1cc(OC)ccc1-2 (stereo not given) [7-methoxy-N-(1-methoxypropan-2-yl)-4,5-dihydrobenzo[g][1,2]benzoxazole-3-carboxamide] | 6.4
13 | COc1cccc(-c2cc(C(=O)NCCc3ccccc3)no2)c1 [5-(3-methoxyphenyl)-N-(2-phenylethyl)-1,2-oxazole-3-carboxamide] | > 50
14 | COc1ccccc1-c1cc(C(=O)NCc2ccccc2)no1 [5-(2-methoxyphenyl)-N-(phenylmethyl)-1,2-oxazole-3-carboxamide] | 13.3
15 | COc1cc2nc(-c3cccs3)oc(=O)c2cc1OC [6,7-dimethoxy-2-(2-thienyl)-3,1-benzoxazin-4-one] | > 50
16 | CSc1nc(-c2ccco2)nn1C(=O)c1cccs1 [[3-(furan-2-yl)-5-methylsulfanyl-1,2,4-triazol-1-yl]-thiophen-2-ylmethanone] | 1.78
17 | COc1ccc(C(=O)n2ccc(C)n2)cc1Br [(3-bromanyl-4-methoxy-phenyl)-(3-methylpyrazol-1-yl)methanone] | 41.5
18 | O=C(c1noc2c1CCc1ccccc1-2)N1CCOCC1 [3-(morpholin-4-ylcarbonyl)-4,5-dihydronaphtho[2,1-d]isoxazole] | > 50
19 | C#CCOC(=O)c1ccccc1C(=O)n1nnc2ccccc21 | 3.97
20 | COCCNC(=O)c1noc2c1CCc1cc(OC)ccc1-2 [7-methoxy-N-(2-methoxyethyl)-4,5-dihydrobenz[g]indoxazene-3-carboxamide] | 4.36
21 | O=C(CCSc1nccn1Cc1ccccc1)N1CCOCC1 [1-(4-morpholinyl)-3-[[1-(phenylmethyl)-2-imidazolyl]thio]-1-propanone] | > 50
22 | COc1ccc(S(=O)(=O)n2nc(OC(=O)c3ccc(C)cc3)cc2N)cc1 [4-Methyl-benzoic acid 5-amino-1-(4-methoxy-benzenesulfonyl)-1H-pyrazol-3-yl ester] | 18.3
23 | Nc1nc(C(=O)N2CCOCC2)nn1C(=O)c1ccc(Cl)cc1 [(5-azanyl-3-morpholin-4-ylcarbonyl-1,2,4-triazol-1-yl)-(4-chlorophenyl)methanone] | 4.51
24 | O=C(c1noc2c1CCc1ccccc1-2)N1CCCc2ccccc21 [3-(3,4-dihydroquinolin-1(2H)-ylcarbonyl)-4,5-dihydronaphtho[2,1-d]isoxazole] | 47.6
25 | COc1ccc(CNC(=O)c2cc(-c3ccc(OC)c(OC)c3)on2)cc1 [5-(3,4-dimethoxyphenyl)-N-(4-methoxybenzyl)isoxazole-3-carboxamide] | > 50
26 | O=c1oc(-c2ccco2)nc2ccccc12 [2-Furan-2-yl-benzo[d][1,3]oxazin-4-one] | 0.793
27 | COc1ccc2c(c1)CCc1c(C(=O)NCc3cccnc3)noc1-2 [7-methoxy-N-(3-pyridinylmethyl)-4,5-dihydrobenzo[g][1,2]benzoxazole-3-carboxamide] | 1.39
28 | CCCC(=O)Nc1ccc(C(=O)n2nnc3ccccc32)cc1 [N-[4-(1H-1,2,3-benzotriazol-1-ylcarbonyl)phenyl]butanamide] | 0.923
29 | COc1ccc(C(=O)n2cnc(N)n2)cc1 [(3-amino-1,2,4-triazol-1-yl)-(4-methoxyphenyl)methanone] | 1.31

Results, then the compound that gave them:

Row | IC50 [µM] | SMILES
30 | 4.33 | O=C(c1csc2ccccc12)n1cccn1 [MLS000065687]
31 | 22.6 | Cc1ccccc1CS(=O)(=O)c1nnc([C@H](CC(C)C)NC(=O)OC(C)(C)C)o1 [SMR000044673]
32 | 32.2 | COc1ccc(C(=O)n2nc(-c3ccc(Cl)cc3)nc2N)cc1OC [SMR000074176]
33 | 21.6 | CCOC(=O)c1ccc(/N=C/c2nc(-c3ccccc3)oc2OC(C)=O)cc1 [MLS000027596]
34 | 6.45 | Cc1ccccc1Cn1nc(C)c(NC(=O)c2noc3c2CCc2ccccc2-3)c1C [MLS000116424]
35 | 1.58 | COc1ccc2c(c1)CCc1c(C(=O)NCc3ccco3)noc1-2 [MLS000087436]
36 | 4.43 | COc1ccc(C(=O)n2nc(-c3ccccc3)nc2N)cc1OC [MLS000099650]
37 | 44.4 | COc1ccc(-c2cc(C(=O)Nc3c(C)nn(Cc4ccccc4Cl)c3C)no2)cc1 [MLS000087058]
38 | 11.1 | COc1ccccc1-c1cc(C(=O)NCc2ccc(Cl)cc2)no1 [MLS000087096]
39 | 14.5 | COc1ccc2c(c1)CCc1c(C(=O)Nc3ccc(OC)c(OC)c3)noc1-2 [MLS000087452]
40 | 3.26 | Nc1cc(OC(=O)c2cccs2)nn1S(=O)(=O)c1ccccc1 [SMR000021562]
41 | 43.2 | COc1ccc(-c2cc(C(=O)NCc3ccc(Cl)cc3)no2)cc1OC [MLS000087122]
42 | 0.631 | COc1ccc2c(c1)CCc1c(C(=O)NC3CCCCC3)noc1-2 [MLS000087437]
43 | 1.95 | CC(C)(C)OC(=O)N[C@@H](Cc1ccccc1)c1nnc(S(=O)(=O)Cc2ccccc2)o1 [SMR000047857]
44 | 4.13 | COc1ccc2c(c1)CCc1c(C(=O)NCCCn3ccnc3)noc1-2 [MLS000087439]
45 | > 50 | O=C1CS/C(=N\c2ccc(O)cc2)N1c1ccc(O)cc1 [MLS000027731]
